{"source": "patent US9376420B2", "about": "(YUHAN CORPORATION, priority 2012, dated 2016)", "molecular_target": "T1, human LXRβ (Homo sapiens, UniProt P55055)", "T1 construct": "expressed in transfected cells; host or cells: HEK293 cells (ATCC CRL-1573), transient transfection with pFA-hLXRβ/GAL4 and pUAS", "T1 sequence (P55055 222-460 limits assumed)": "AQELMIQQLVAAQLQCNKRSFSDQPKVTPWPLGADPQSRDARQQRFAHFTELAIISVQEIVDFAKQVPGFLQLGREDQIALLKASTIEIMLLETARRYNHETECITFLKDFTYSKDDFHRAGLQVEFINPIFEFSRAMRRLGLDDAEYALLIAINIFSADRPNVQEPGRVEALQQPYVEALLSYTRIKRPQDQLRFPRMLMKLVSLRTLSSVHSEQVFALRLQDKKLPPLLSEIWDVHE", "assay": "Assay for Transcriptional Activity of LXRβ (GAL4-hLXRβ LBD luciferase reporter, transient transfection)", "assay_type": "cell-based", "settings": "HEK293 cells transfected with pFA-hLXRβ/GAL4 and pUAS, 24 hours; for Emax: fold value in comparison with the control (DMSO-treated group); for EC50: increase of transcriptional activity of LXRβ, average of three independent tests", "outline": "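HEK293 cells transiently co-transfected with GAL4-hLXRβ LBD and 5×GAL4-UAS luciferase reporter, treated 24 h at 37 °C with compounds over 9 points (0.01–50 μM, half-log). Luminescence read after lysis; EC50 from four-parameter fit, mean of three independent tests, with a known LXR agonist as positive control.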"}
{"smiles": "CCCS(=O)(=O)N1CC=C(c2ccc(C3CC(C(O)(C(F)(F)F)C(F)(F)F)=NN3c3ccccc3Cl)cc2)CC1", "note": "(centres unmarked) [Example 300, 1-(2-chloro-phenyl)-5-{4-[1-(propane-1-sulfonyl)-1,2,3,6-tetrahydropyridin-4-yl]-phenyl}-3-[di-(trifluoromethyl)-hydroxy-methyl]-4,5-dihydro-1H-pyrazole]", "values": [{"measurement": "Emax", "result": 53, "unit": "fold"}, {"measurement": "EC50", "result": 635, "unit": "nM"}]}
{"smiles": "CC(O)c1ccc(-c2cccc(C3CC(C(F)(F)C(F)(F)F)=NN3c3ccccc3Cl)c2)cc1", "note": "(centres unmarked) [Example 108, 1-(2-chloro-phenyl)-5-[4′-(1-hydroxy-ethyl)-biphenyl-3-yl]-3-pentafluoroethyl-4,5-dihydro-1H-pyrazole]", "values": [{"measurement": "Emax", "result": 44, "unit": "fold"}, {"measurement": "EC50", "result": 993, "unit": "nM"}]}
{"smiles": "CC(C)S(=O)(=O)N1CC=C(c2ccc(C3CC(C(O)(C(F)(F)F)C(F)(F)F)=NN3c3ccccc3Cl)cc2)CC1", "note": "(centres unmarked) [Example 301, 1-(2-chloro-phenyl)-5-{4-[1-(propane-2-sulfonyl)-1,2,3,6-tetrahydropyridin-4-yl]-phenyl}-3-[di-(trifluoromethyl)-hydroxy-methyl]-4,5-dihydro-1H-pyrazole]", "values": [{"measurement": "Emax", "result": 73, "unit": "fold"}, {"measurement": "EC50", "result": 479, "unit": "nM"}]}
{"smiles": "CSc1ccc(-c2cccc(C3CC(C(F)(F)C(F)(F)F)=NN3c3ccc(Cl)cc3F)c2)cc1", "note": "(centres unmarked) [Example 31, 1-(4-chloro-2-fluoro-phenyl)-5-(4′-methylsulfanyl-biphenyl-3-yl)-3-pentafluoroethyl-4,5-dihydro-1H-pyrazole]", "values": [{"measurement": "Emax", "result": 28, "unit": "fold"}, {"measurement": "EC50", "result": 5660, "unit": "nM"}]}
{"smiles": "CS(=O)(=O)c1ccc(-c2ccc(C3CC(C(O)(C(F)(F)F)C(F)(F)F)=NN3c3ccc(F)cc3F)cc2)cc1C(F)(F)F", "note": "(centres unmarked) [Example 392, 1-(2,4-difluoro-phenyl)-5-(4′-methanesulfonyl-3′-trifluoromethyl-biphenyl-4-yl)-3-[di-(trifluoromethyl)-hydroxy-methyl]-4,5-dihydro-1H-pyrazole]", "values": [{"measurement": "Emax", "result": 26, "unit": "fold"}, {"measurement": "EC50", "result": 147, "unit": "nM"}]}
{"smiles": "CS(=O)(=O)N1CC=C(c2cccc(C3CC(C(F)(F)C(F)(F)F)=NN3c3ccc(F)cc3F)c2)CC1", "note": "(centres unmarked) [Example 62, 1-(2,4-difluoro-phenyl)-5-[3-(1-methanesulfonyl-1,2,3,6-tetrahydropyridin-4-yl)-phenyl]-3-pentafluoroethyl-4,5-dihydro-1H-pyrazole]", "values": [{"measurement": "Emax", "result": 59, "unit": "fold"}, {"measurement": "EC50", "result": 1160, "unit": "nM"}]}
{"smiles": "CS(=O)(=O)c1ccc(-c2ccnc(C3CC(C(F)(F)C(F)(F)F)=NN3c3ccc(F)cc3F)c2)cn1", "note": "(centres unmarked) [Example 178, 1-(2,4-difluoro-phenyl)-5-[4-(6-methanesulfonyl-pyridin-3-yl)-pyridin-2-yl]-3-pentafluoroethyl-4,5-dihydro-1H-pyrazole]", "values": [{"measurement": "Emax", "result": 82, "unit": "fold"}, {"measurement": "EC50", "result": 543, "unit": "nM"}]}
{"smiles": "Cn1c(-c2ccc(C3CC(C(O)(C(F)(F)F)C(F)(F)F)=NN3c3ccc(F)cc3F)cc2)cc2ccccc21", "note": "(centres unmarked) [Example 374, 1-(2,4-difluoro-phenyl)-5-[4-(1-methyl-1H-indol-2-yl)-phenyl]-3-[di-(trifluoromethyl)-hydroxy-methyl]-4,5-dihydro-1H-pyrazole]", "values": [{"measurement": "Emax", "result": 60, "unit": "fold"}, {"measurement": "EC50", "result": 678, "unit": "nM"}]}
{"smiles": "CS(=O)(=O)c1ccc(-c2cccc(C3CC(C(F)(F)C(F)(F)F)=NN3c3ccc(F)cc3F)c2)cc1C(F)(F)F", "note": "(centres unmarked) [Example 69, 1-(2,4-difluoro-phenyl)-5-(4′-methanesulfonyl-3′-trifluoromethyl-biphenyl-3-yl)-3-pentafluoroethyl-4,5-dihydro-1H-pyrazole]", "values": [{"measurement": "Emax", "result": 83, "unit": "fold"}, {"measurement": "EC50", "result": 1100, "unit": "nM"}]}
{"smiles": "CS(=O)(=O)N1CC=C(c2ccc(C3CC(C(O)(C(F)(F)F)C(F)(F)F)=NN3c3ccccc3Cl)cc2)CC1", "note": "(centres unmarked) [Example 298, 1-(2-chloro-phenyl)-5-[4-(1-methanesulfonyl-1,2,3,6-tetrahydropyridin-4-yl)-phenyl]-3-[di-(trifluoromethyl)-hydroxy-methyl]-4,5-dihydro-1H-pyrazole]", "values": [{"measurement": "Emax", "result": 88, "unit": "fold"}, {"measurement": "EC50", "result": 304, "unit": "nM"}]}
{"smiles": "CSc1ccc(-c2ccc(F)c(C3CC(C(F)(F)C(F)(F)F)=NN3c3ccc(F)cc3F)c2)cn1", "note": "(centres unmarked) [Example 140, 1-(2,4-difluoro-phenyl)-5-[6-fluoro-3-(6-methylsulfanyl-pyridin-3-yl)-phenyl]-3-pentafluoroethyl-4,5-dihydro-1H-pyrazole]", "values": [{"measurement": "Emax", "result": 143, "unit": "fold"}, {"measurement": "EC50", "result": 1770, "unit": "nM"}]}
{"smiles": "CS(=O)(=O)c1ccc(-c2cc(C3CC(C(F)(F)C(F)(F)F)=NN3c3ccc(F)cc3F)ccc2F)cc1", "note": "(centres unmarked) [Example 129, 1-(2,4-difluoro-phenyl)-5-(6-fluoro-4′-methanesulfonyl-biphenyl-3-yl)-3-pentafluoroethyl-4,5-dihydro-1H-pyrazole]", "values": [{"measurement": "Emax", "result": 44, "unit": "fold"}, {"measurement": "EC50", "result": 7990, "unit": "nM"}]}
{"smiles": "Fc1ccc(N2N=C(C(F)(F)C(F)(F)F)CC2c2ccc(F)c(-c3ccc(Cl)nc3)c2)c(F)c1", "note": "(centres unmarked) [Example 130, 1-(2,4-difluoro-phenyl)-5-[4-fluoro-3-(6-chloro-pyridin-3-yl)-phenyl]-3-pentafluoroethyl-4,5-dihydro-1H-pyrazole]", "values": [{"measurement": "Emax", "result": 34, "unit": "fold"}, {"measurement": "EC50", "result": 10300, "unit": "nM"}]}
{"smiles": "O=C(c1cccs1)N1CC=C(c2cccc(C3CC(C(O)(C(F)(F)F)C(F)(F)F)=NN3c3ccccc3Cl)c2)CC1", "note": "(centres unmarked) [Example 234, 1-(2-chloro-phenyl)-5-{3-[1-(thiophene-2-carbonyl)-1,2,3,6-tetrahydropyridin-4-yl]-phenyl}-3-[di-(trifluoromethyl)-hydroxy-methyl]-4,5-dihydro-1H-pyrazole]", "values": [{"measurement": "Emax", "result": 49, "unit": "fold"}, {"measurement": "EC50", "result": 13, "unit": "nM"}]}
{"smiles": "OC(C1=NN(c2ccccc2Cl)C(c2ccc(-c3cccc(OC(F)(F)F)c3)cc2)C1)(C(F)(F)F)C(F)(F)F", "note": "(centres unmarked) [Example 248, 1-(2-chloro-phenyl)-5-[3′-(trifluoromethoxy)-biphenyl-4-yl]-3-[di-(trifluoromethyl)-hydroxy-methyl]-4,5-dihydro-1H-pyrazole]", "values": [{"measurement": "Emax", "result": 43, "unit": "fold"}, {"measurement": "EC50", "result": 2480, "unit": "nM"}]}
{"smiles": "CS(=O)(=O)c1cccc(-c2cccc(N3N=C(C(F)(F)C(F)(F)F)CC3c3ccc(F)cc3F)c2)n1", "note": "(centres unmarked) [Example 208, 5-(2,4-difluoro-phenyl)-1-[3-(6-methanesulfonyl-pyridin-2-yl)-phenyl]-3-pentafluoroethyl-4,5-dihydro-1H-pyrazole]", "values": [{"measurement": "Emax", "result": 22, "unit": "fold"}, {"measurement": "EC50", "result": 6070, "unit": "nM"}]}
{"smiles": "CS(=O)(=O)c1ccc(-c2cncc(C3CC(C(F)(F)C(F)(F)F)=NN3c3ccc(F)cc3F)c2)cc1", "note": "(centres unmarked) [Example 162, 1-(2,4-difluoro-phenyl)-5-[3-(4-methanesulfonyl-phenyl)-pyridin-5-yl]-3-pentafluoroethyl-4,5-dihydro-1H-pyrazole]", "values": [{"measurement": "Emax", "result": 59, "unit": "fold"}, {"measurement": "EC50", "result": 2930, "unit": "nM"}]}
{"smiles": "O=S(=O)(N1CCCC1)N1CCN(c2ccc(C3CC(C(O)(C(F)(F)F)C(F)(F)F)=NN3c3ccccc3Cl)cc2)CC1", "note": "(centres unmarked) [Example 319, 1-(2-chloro-phenyl)-5-{4-[4-(pyrrolidine-1-sulfonyl)-piperazin-1-yl]-phenyl}-3-[di-(trifluoromethyl)-hydroxy-methyl]-4,5-dihydro-1H-pyrazole]", "values": [{"measurement": "Emax", "result": 39, "unit": "fold"}, {"measurement": "EC50", "result": 1830, "unit": "nM"}]}
{"smiles": "CC(C)C(=O)N1CC=C(c2ccc(C3CC(C(O)(C(F)(F)F)C(F)(F)F)=NN3c3ccc(F)cc3F)cc2)CC1", "note": "(centres unmarked) [Example 402, 1-(2,4-difluoro-phenyl)-5-[4-(1-isobutyryl-1,2,3,6-tetrahydropyridin-4-yl)-phenyl]-3-[di-(trifluoromethyl)-hydroxy-methyl]-4,5-dihydro-1H-pyrazole]", "values": [{"measurement": "Emax", "result": 23, "unit": "fold"}, {"measurement": "EC50", "result": 1020, "unit": "nM"}]}
